According to patent publication US7601501B2, “Controlling osteogenesis by inhibition of osteogenic suppressors” (The Scripps Research Institute, priority 2006, dated 2009):
“Also recorded” adds a separate entry of the source.

Assays:
[1] = tested on: human mesenchymal stem cells (hMSCs); test: Compound treatment: adipogenic differentiation / cell fate switch of hMSCs; type: cell-based; details: for cell fate switch from osteogenic to adipogenic: hMSCs treated with the OS media; for differentiation of hMSCs into mature adipocytes: combined treatment with dexamethasone; for adipogenic differentiation of hMSCs promoted by compound: especially in the presence of dexamethasone (DEX)
Protocol: Cells were rinsed with PBS twice, fixed in 10% formalin solution for 20 minutes, rinsed with PBS twice and dH2O once, washed with propylene glycol for 5 minutes, and stained with Oil red in propylene glycol (I2722A, Newcomer Supply) for 30 minutes. Cells were then washed with 85% propylene glycol for 5 minutes, rinsed with dH2O 3 times and preserved in 50% glycerol.
(§1) 8-CPT-cAMP, Na (cat# 116812), 5-Iodotubercidin (cat# 407900), Prostaglandin E2 (PGE2, cat# 538904), SB 202190 (cat# 559388) and U0126 (cat# 662005) were purchased from Calbiochem; N6,2′-O-Dibutyryl-cAMP (cat# D0260-5MG), forskolin (cat# F6886), ascorbic acid 2-phosphate (cat# 49752-10G), β-glycerophosphate (G-6251), dexamethasone (D8893), 3-isobutyl-1-methylxanthine (IBMX, I5879) and Insulin (I 9278) were purchased from Sigma/Aldrich/Fluka.
(§2) Since the targeted genes are all positively involved in intracellular cAMP signaling, we tested the effect of two compounds of opposing function on cAMP production on osteogenic differentiation of hMSCs, ADK inhibitor 5-iodotubercidin and ADCY activator forskolin (Cottam, H. B. et al., J Med Chem 36:3424-3430 (1993); de Souza, N. J. et al., Med Res Rev 3:201-219 (1983)). […] ATP has been shown as a ligand for P2RY11 receptor (Communi et al., 1997). […] The present observations are consistent with the conclusion that […] in hMSCs, and vice versa.

[2] = tested on: human mesenchymal stem cells (hMSCs); test: Alizarin red staining for calcium phosphate deposits (ECM mineralization, bone cell maturation); type: cell-based; details: for intensity of alizarin red staining (bone cell maturation), 3+9OS: OS started three days after siRNA transfection and continued for 9 days
Protocol: Cells were rinsed with PBS twice, stained in alizarin red solution (cat# vw3611-2, VWR) for 8 minutes at room temperature, washed with PBS again, fixed in 10% formalin solution (cat# HT-5014, Sigma) for 20 minutes, then rinsed with water and air dried.
Bone cell maturation is accompanied by extracellular matrix (ECM) mineralization (John Bilezikian et al., Principles of bone biology, Vol 1, 2nd edn: Academic Press) (2002)). […] […] These observations are consistent with the conclusion that the targeted genes of the ten effective hit siRNAs not only play inhibitory roles in osteogenic specification of hMSCs, but also in bone cell maturation. […] Furthermore, in osteoporotic patients, the number of adipocytes was increased in the marrow, implying a change of cell fate disposition from osteoblast lineage to adipocyte lineage (Justesen, J. et al., Biogerontology 2:165-171 (2001); Meunier, P. et al., Clin Orthop Relat Res 80:147-154 (1971)). We therefore examined the effect of our hit siRNAs on adipogenic differentiation of hMSCs by combined treatment with an adipogenic inducing cocktail (100 μg/ml IBMX, 1 μM DEX and 10 μg/ml insulin).

CREB = test: Western blot of phospho-CREB in transfected hMSCs; type: cell-based, human; details: 3 days after transfection, compared to siCon treated or untreated
Protocol: Cell lyses buffer contains 20 mM Tris pH8.0, 1 mM EDTA, 150 mM NaCl and 0.5% NP-40, and before usage, protease inhibitor cocktail (Cat# p8340, Sigma, 1:100 dilution) and phosphatase inhibitor cocktail 2 (Cat# p5726, sigma, 1:100 dilution) were added. Proteins (60 μg/well) were separated in 12% Novex Tris-Glycine gel (Cat# EC6008 box, Invitrogen) and transferred to Nitrocellulose membrane (Cat# LC2001, Invitrogen) using the XCell II blot module system (Cat# EI9051, Invitrogen). The membrane was blocked in 5% milk/PBST for 1 hour at room temperature, incubated over night at 4 degree with primary antibody, washed 3 times with PBST (0.05% Tween 20 in PBS), followed by one hour incubation with secondary antibody in 5% milk/PBST and 3 times wash with PBST at room temperature. For antibody against pCREB however, PBST was substituted with PBS in all steps except for the last one. Antibody-bound proteins were detected utilizing ECL Western blotting detection reagent (Amersham Biosciences).
Anti-phospho-CREB was purchased from Upstate Biotechnology (cat# 06-519); Anti-phospho-p38 was purchased from Cell signaling technology (cat# 9910).
To find out whether CREB (cAMP Responding Element Binding protein), a common downstream effector of cAMP signaling pathway, is involved in mediating cAMP signaling controlled differentiation of hMSCs, we checked the expression level of the active form of CREB proteins in cells 3 days after siP2RY11, siADK, siGNAS, siSLC12a2 or siCon transfection. […] To further examine the role of CREB in osteogenesis and adipogenesis, a synthetic 24-mer CRE decoy oligonucleotide that can compete with endogenous CRE enhancers for binding proteins was transfected into hMSCs (Park, Y. G. et al., J Biol Chem 274:1573-1580 (1999)), which were then subjected to the treatment of osteogenic or adipogenic induction media.

[3] = tested on: human mesenchymal stem cells (hMSCs); test: Compound treatment: OS-induced osteogenic differentiation of hMSCs (ALP / alizarin red staining); type: cell-based; details: for osteogenic effect of the OS media on hMSCs: compound combined with OS treatment, ALP and/or alizarin red staining
Protocol: as §1, §2

For `CCCCC[C@H](O)/C=C/[C@H]1[C@H](O)CC(=O)[C@@H]1C/C=C\CCCC(=O)O` [PGE2, Prostaglandin E2], the “cell fate switch from osteogenic to adipogenic” value (“cell fate switch from osteogenic” below) [1] was “could switch cell fate determination from osteogenic to adipogenic differentiation”.

In the case of “CCUCUUCGUGGCUACAUCU (siRNA; listed as RNA, chemistry not fully specified) [siSLC12a2, siRNA targeting solute carrier family 12, member 2]”, the “intensity of alizarin red staining (bone cell maturation), 3+9OS” value (“intensity of alizarin red staining … 3+9OS” for short) [2] is reported as “dramatically enhanced” and the “level of pCREB protein (Western blot)” value (CREB) is reported as “increased”.

For `CCCC(=O)Nc1ncnc2c1ncn2[C@@H]1O[C@@H]2COP(=O)(O)O[C@H]2[C@H]1OC(=O)CCC` [DB-cAMP, N6,2′-dibutyryl-cAMP], the “differentiation of hMSCs into mature adipocytes” value [1] was “sufficient to differentiate hMSCs into mature adipocytes” and the “adipogenic differentiation of hMSCs promoted by compound” value [1] was “promoted hMSCs to undergo adipogenic differentiation”.

With “UGCGAGCCAAGAUGGACAA (siRNA; listed as RNA, chemistry not fully specified) [siKCNT1, siRNA targeting potassium channel, subfamily T, member 1]” the “intensity of alizarin red staining … 3+9OS” value [2] was “dramatically enhanced”.

`Oc1ccc(-c2nc(-c3ccncc3)c(-c3ccc(F)cc3)[nH]2)cc1` [SB202190] was tested, and the “osteogenic effect of the OS media on hMSCs” value (from here on “osteogenic effect”) [3] was “inhibited the osteogenic inducing effect of OS”.

With “GGAGAUCAACAAGCAUUCA (siRNA; listed as RNA, chemistry not fully specified) [siADCY8, siRNA targeting adenylate cyclase 8]” the “intensity of alizarin red staining … 3+9OS” value [2] was “weak enhancement”.

In the case of `COc1cccc(-c2cc(=O)c3ccccc3o2)c1N` [PD98059], the “osteogenic effect” value [3] is reported as “inhibited the osteogenic inducing effect of OS”.

“UGCGGGUGCUCAACGUGGA (siRNA; listed as RNA, chemistry not fully specified) [siP2RY11, siRNA targeting purinergic receptor P2Y, G-protein coupled, 11]” was tested, and the “intensity of alizarin red staining … 3+9OS” value [2] was “dramatically enhanced” and the “level of pCREB protein (Western blot)” value (CREB) was “increased”.

“UGCCAAAGAGGAUGUACAU (siRNA; listed as RNA, chemistry not fully specified) [siTBX3, siRNA targeting T-box 3 (ulnar mammary syndrome)]” was tested, and the “intensity of alizarin red staining … 3+9OS” value [2] was “no significant effect”.

In the case of “CCCGAAAACAUUGCUAGCA (siRNA; listed as RNA, chemistry not fully specified) [siGBDR1, siRNA targeting putative glialblastoma cell differentiation-related]”, the “intensity of alizarin red staining … 3+9OS” value [2] is reported as “dramatically enhanced”.

For “UCGAAGAUUGAGGACUACU (siRNA; listed as RNA, chemistry not fully specified) [siGNAS, siRNA targeting GNAS complex locus]”, the “intensity of alizarin red staining … 3+9OS” value [2] was “dramatically enhanced” and the “level of pCREB protein (Western blot)” value (CREB) was “increased”.

`Nc1ncnc2c1ncn2[C@@H]1O[C@H](COP(=O)(O)OP(=O)(O)OP(=O)(O)O)[C@@H](O)[C@H]1O` [ATP] was tested, and the “siP2RY11 and siSLC12a2 induced osteogenesis in combination with OS (ALP staining)” value ([3]; OS and ATP added on the third day after siRNA transfection, continued for a week) was “dosage-dependent inhibitory effect”, the “osteogenic effect” value [3] was “inhibited; also recorded: dosage-dependent inhibitory effect” and the “number of cells undergoing adipogenic differentiation” value ([1]; dosage dependent manner) was “slightly increases”.

In the case of `CC(C)Cn1c(=O)n(C)c(=O)c2[nH]cnc21` [IBMX, 3-isobutyl-1-methylxanthine], the “adipogenic differentiation of hMSCs promoted by compound” value [1] is reported as “promoted hMSCs to undergo adipogenic differentiation” and the “cell fate switch from osteogenic” value [1] is reported as “could switch cell fate determination from osteogenic to adipogenic differentiation”.

In the case of “UGUGCUACACAGUCAUUAC (siRNA; listed as RNA, chemistry not fully specified) [siBIRC4, siRNA targeting baculoviral IAP repeat-containing 4]”, the “intensity of alizarin red staining … 3+9OS” value [2] is reported as “weak enhancement”.

With `Nc1ncnc2c1nc(Sc1ccc(Cl)cc1)n2[C@@H]1O[C@@H]2COP(=O)(O)O[C@H]2[C@H]1O` [8-CPT-cAMP] the “differentiation of hMSCs into mature adipocytes” value [1] was “sufficient to differentiate hMSCs into mature adipocytes”, the “adipogenic differentiation of hMSCs promoted by compound” value [1] was “promoted hMSCs to undergo adipogenic differentiation” and the “cell fate switch from osteogenic” value [1] was “could switch cell fate commitment from osteogenic to adipogenic”. For the same compound, the “cell fate switch from osteogenic” value ([1]; listed as CPT-cAMP) was “could switch cell fate determination from osteogenic to adipogenic differentiation”.

For “GCCACACAAAGCAGCAACA (siRNA; listed as RNA, chemistry not fully specified) [siADK, siRNA targeting adenosine kinase]”, the “intensity of alizarin red staining … 3+9OS” value [2] was “dramatically enhanced”, the “intensity of alizarin red staining, sequential siRNA then OS” value ([2]; siRNA initial 2-4 days followed by OS (2+6OS, 3+5OS, 4+4OS), vs siCon) was “clearly enhanced the intensity of alizarin red staining; also recorded: enhancing effect” and the “level of pCREB protein (Western blot)” value (CREB) was “increased”.

“CCCAGGUCUCCGAUGAACU (siRNA; listed as RNA, chemistry not fully specified) [siBCL212, siRNA targeting BCL2-like 2]” was tested, and the “intensity of alizarin red staining … 3+9OS” value [2] was “modest enhancement”.
